According to article PMC10709440, “High-throughput ligand profile characterization in novel cell lines expressing seven heterologous insect olfactory receptors for the detection of volatile plant biomarkers” (Scientific Reports, 2023):
Like-named read-outs stand apart in the source and are kept apart here.

Experiments:
Drosophila OR13a = biological target: T1, Drosophila OR13a (Drosophila melanogaster, UniProt Q9VXL0); assay: Calcium ion fluorescence (GCaMP6) assay, OR13a stable HEK293 cell line; format: cell-based; conditions: for activation at 1 µM: HEK293, read-out: OR13a Average response (VUAA1-normalized), 1 μM VOC; for activation at 1 µM / activation at 10 µM / activation at 100 µM: 50 μM VUAA1 = 1, responses not exceeding 0.05 considered 0; for activation at 10 µM: HEK293, read-out: OR13a Average response (VUAA1-normalized), 10 μM VOC; for activation at 100 µM: HEK293, read-out: OR13a Average response (VUAA1-normalized), 100 μM VOC; for OR13a response (VUAA1-normalized) at 1 μM / OR13a response (VUAA1-normalized) at 10 μM / OR13a response (VUAA1-normalized) at 100 μM: OR13a cell line; for OR13a response (VUAA1-normalized) at 1 μM: VOC concentration 1 μM; for OR13a response (VUAA1-normalized) at 10 μM: VOC concentration 10 μM; for OR13a response (VUAA1-normalized) at 100 μM: VOC concentration 100 μM
T1 construct: expressed in transfected cells
T1 sequence (Q9VXL0 1-418): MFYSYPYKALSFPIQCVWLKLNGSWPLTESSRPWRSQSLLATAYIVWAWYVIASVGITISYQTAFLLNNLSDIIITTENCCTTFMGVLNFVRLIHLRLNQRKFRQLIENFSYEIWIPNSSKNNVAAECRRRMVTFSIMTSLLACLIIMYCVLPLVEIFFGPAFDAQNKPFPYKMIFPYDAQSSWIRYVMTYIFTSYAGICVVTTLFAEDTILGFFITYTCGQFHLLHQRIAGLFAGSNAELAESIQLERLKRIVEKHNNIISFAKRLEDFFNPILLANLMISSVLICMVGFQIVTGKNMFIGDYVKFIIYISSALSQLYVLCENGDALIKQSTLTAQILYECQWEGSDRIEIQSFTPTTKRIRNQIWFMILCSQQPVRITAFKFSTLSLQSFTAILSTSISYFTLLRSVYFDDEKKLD
T1 sequence (Q9VNB5 1-486 partner): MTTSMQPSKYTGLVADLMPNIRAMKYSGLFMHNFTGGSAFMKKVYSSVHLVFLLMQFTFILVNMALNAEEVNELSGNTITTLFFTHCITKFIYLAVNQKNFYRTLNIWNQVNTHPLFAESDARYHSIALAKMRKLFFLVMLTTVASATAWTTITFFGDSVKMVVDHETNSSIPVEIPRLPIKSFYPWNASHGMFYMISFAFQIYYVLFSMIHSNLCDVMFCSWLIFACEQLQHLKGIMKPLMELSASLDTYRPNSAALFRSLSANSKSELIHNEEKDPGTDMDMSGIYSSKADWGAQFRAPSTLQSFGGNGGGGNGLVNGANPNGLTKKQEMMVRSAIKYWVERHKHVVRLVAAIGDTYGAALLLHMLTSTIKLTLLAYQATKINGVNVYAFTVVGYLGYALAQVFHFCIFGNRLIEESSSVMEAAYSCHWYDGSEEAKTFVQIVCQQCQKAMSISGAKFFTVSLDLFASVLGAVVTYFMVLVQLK
Procedure, shortened: (§1)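 HEK293 lines stably expressing each Drosophila OR with GCaMP6, doxycycline-induced (1 μg/mL) 48 or 72 h. Fluorescence recorded 5 s baseline then 30 s after VOC injection at pH 7.3; ΔF=(FMAX−F0)/F0, normalized to 50 µM VUAA1 response per line, triplicate wells averaged; concentration series 0.01–100 μM.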

Drosophila OR98a = biological target: T2, Drosophila OR98a (Drosophila melanogaster, UniProt Q9VAZ3); assay: Calcium ion fluorescence (GCaMP6) assay, OR98a stable HEK293 cell line; format: cell-based; conditions: for OR98a response (VUAA1-normalized) at 1 μM / OR98a response (VUAA1-normalized) at 10 μM / OR98a response (VUAA1-normalized) at 100 μM: OR98a cell line; for OR98a response (VUAA1-normalized) at 1 μM: VOC concentration 1 μM; for OR98a response (VUAA1-normalized) at 10 μM: VOC concentration 10 μM; for OR98a response (VUAA1-normalized) at 100 μM: VOC concentration 100 μM
T2 construct: expressed in transfected cells
T2 sequence (Q9VAZ3 1-397): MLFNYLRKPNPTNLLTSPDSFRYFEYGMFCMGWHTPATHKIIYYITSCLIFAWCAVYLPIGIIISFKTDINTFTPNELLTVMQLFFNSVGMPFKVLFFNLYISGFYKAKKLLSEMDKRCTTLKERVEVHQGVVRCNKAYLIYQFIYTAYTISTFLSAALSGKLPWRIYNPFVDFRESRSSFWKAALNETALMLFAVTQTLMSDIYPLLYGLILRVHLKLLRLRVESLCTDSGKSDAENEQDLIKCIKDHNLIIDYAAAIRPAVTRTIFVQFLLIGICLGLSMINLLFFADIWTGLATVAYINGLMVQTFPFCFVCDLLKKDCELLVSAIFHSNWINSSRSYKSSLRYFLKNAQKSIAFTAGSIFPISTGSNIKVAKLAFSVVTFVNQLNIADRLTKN
T2 sequence (Q9VNB5 1-486 partner): T1 sequence (Q9VNB5 1-486 partner)
Procedure, shortened: as §1

[1] = ligand concentration 1 (unit not given), threshold 0.05, below shown as 0
[2] = ligand concentration 10 (unit not given), threshold 0.05, below shown as 0
[3] = ligand concentration 100 (unit not given), threshold 0.05, below shown as 0
[4] = HEK293, read-out: Average response
[5] = HEK293, read-out: OR98a Average response (VUAA1-normalized)
[6] = ligand concentration 1 (unit not given), 0.05 threshold, values below shown as 0
[7] = ligand concentration 10 (unit not given), 0.05 threshold, values below shown as 0
[8] = ligand concentration 100 (unit not given), 0.05 threshold, values below shown as 0

Row | SMILES | activation at 1 µM (Drosophila OR13a) | activation at 10 µM (Drosophila OR13a) | activation at 100 µM (Drosophila OR13a) | OR13a response (VUAA1-normalized) at 1 μM (Drosophila OR13a) | OR13a response (VUAA1-normalized) at 10 μM (Drosophila OR13a) | OR13a response (VUAA1-normalized) at 100 μM (Drosophila OR13a) | DF norm AVERAGE OR13a (Drosophila OR13a; [1]) | DF norm AVERAGE OR13a (Drosophila OR13a; [2]) | DF norm AVERAGE OR13a (Drosophila OR13a; [3]) | activation at 1 µM (Drosophila OR98a; [4]) | activation at 10 µM (Drosophila OR98a; [4]) | activation at 100 µM (Drosophila OR98a; [4]) | OR98a response (VUAA1-normalized) at 1 μM (Drosophila OR98a) | OR98a response (VUAA1-normalized) at 10 μM (Drosophila OR98a) | OR98a response (VUAA1-normalized) at 100 μM (Drosophila OR98a) | DF norm AVERAGE OR98a (Drosophila OR98a; [1]) | DF norm AVERAGE OR98a (Drosophila OR98a; [2]) | DF norm AVERAGE OR98a (Drosophila OR98a; [3]) | activation at 1 µM (Drosophila OR98a; [5]) | activation at 10 µM (Drosophila OR98a; [5]) | further results
1 | Cc1ccccc1C [o-xylene] | 0% | 0% | 1.83% | 0.00 | 0.00 | 0.00 | 0 | 0 | 0 | 0% | 0% | 0% | 0.00 | 0.00 | 0.00 | 0 | 0 | 0 | – | – | –
2 | Cc1ccc(C(C)C)cc1 [p-cymene] | 0% | 0% | 0% | 0.00 | 0.00 | 0.00 | 0 | 0 | 0 | 0% | 4% | 3.65% | 0.00 | 0.00 | 0.00 | 0 | 0 | 0 | – | – | –
3 | Cc1ccc(C)cc1 [p-xylene] | 0% | 0% | 2.5% | 0.00 | 0.00 | 0.00 | 0 | 0 | 0 | 0% | 2.51% | 4% | 0.00 | 0.00 | 0.00 | 0 | 0 | 0 | – | – | –
4 | CCCCCOC(C)=O [pentyl acetate] | 4% | 0.671% | 4.32% | 0.00 | 0.00 | 0.00 | 0 | 0 | 0 | 1.61% | 4% | 14% | 0.00 | 0.00 | 0.14 | 0 | 0 | 0.136 | 2% | 4% | activation at 100 µM (Drosophila OR98a; [5]): 14%
5 | OCCc1ccccc1 [phenethyl alcohol] | 6.58% | 6% | 3% | 0.0658 | 0.06 | 0.00 | 0.06578 | 0.05738 | 0 | 4% | 5% | 12% | 0.00 | 0.05 | 0.12 | 0 | 0.05123 | 0.122 | 4% | 5% | activation at 100 µM (Drosophila OR98a; [5]): 12%
6 | CCCOC(C)=O [propyl acetate] | 0% | 0% | 0% | 0.00 | 0.00 | 0.00 | 0 | 0 | 0 | 10% | 8% | 11% | 0.10 | 0.08 | 0.11 | 0.09538 | 0.07848 | 0.1069 | 10% | 8% | activation at 100 µM (Drosophila OR98a; [5]): 11%
7 | C=C1CCC2(C(C)C)CC12 (centres unmarked) [sabinene] | 0% | 0% | 0% | 0.00 | 0.00 | 0.00 | 0 | 0 | 0 | 0% | 10% | 2% | 0.00 | 0.10 | 0.00 | 0 | 0.1017 | 0 | – | – | –
8 | C=Cc1ccccc1 [styrene] | 3% | 0% | – | 0.00 | 0.00 | 0.00 | – | – | – | 4.43% | 0% | 1.16% | 0.00 | 0.00 | 0.00 | – | – | – | – | – | DF norm AVERAGE OR13a (Drosophila OR13a; [6]): 0; DF norm AVERAGE OR13a (Drosophila OR13a; [7]): 0; DF norm AVERAGE OR13a (Drosophila OR13a; [8]): 0; DF norm AVERAGE OR98a (Drosophila OR98a; [6]): 0; DF norm AVERAGE OR98a (Drosophila OR98a; [7]): 0; DF norm AVERAGE OR98a (Drosophila OR98a; [8]): 0
9 | CCCCCCCCCCCCCC [tetradecane] | 2.63% | 1.68% | 0% | 0.00 | 0.00 | 0.00 | – | – | – | 0% | 12% | 10% | 0.00 | 0.12 | 0.10 | – | – | – | 0% | 12% | DF norm AVERAGE OR13a (Drosophila OR13a; [6]): 0; DF norm AVERAGE OR13a (Drosophila OR13a; [7]): 0; DF norm AVERAGE OR13a (Drosophila OR13a; [8]): 0; activation at 100 µM (Drosophila OR98a; [5]): 10%; DF norm AVERAGE OR98a (Drosophila OR98a; [6]): 0; DF norm AVERAGE OR98a (Drosophila OR98a; [7]): 0.1151; DF norm AVERAGE OR98a (Drosophila OR98a; [8]): 0.09569
